Experiment [1] concerns MRC5. The experiment in a line: Cytotoxicity against human MRC5 cells assessed as growth inhibition after 48 hrs by MTT assay. The settings on record: MRC5, 48 h. The format is cell-based. Background: Formazan colour is commonly taken as a measure of viable cells.
The test system of experiment [2] is PC-3. Put plainly: Cytotoxicity against human PC3 cells assessed as growth inhibition after 48 hrs by MTT assay. Format: functional, cell-based. To be noted: PC-3, 48 h.
For experiment [3], the system named is MDA-MB-231. Put plainly: Cytotoxicity against ER-negative human MDA-MB-231 cells assessed as growth inhibition after 48 hrs by MTT assay. The settings on record: MDA-MB-231, 48 h. Format: functional, cell-based.
The test system of experiment [4] is MCF7. Put plainly: Cytotoxicity against ER-positive human MCF7 cells assessed as growth inhibition after 48 hrs by MTT assay. The format is functional, cell-based. The settings on record: MCF7, 48 h.
Experiment [5] has as its system MRC5. Put plainly: Cytotoxicity against human MRC5 cells assessed as growth inhibition after 48 hrs by SRB assay. Format: cell-based. To be noted: MRC5, 48 h.
In experiment [6] the test system is PC-3. Put plainly: Cytotoxicity against human PC3 cells assessed as growth inhibition after 48 hrs by SRB assay. The format is functional, cell-based. The settings on record: PC-3, 48 h. On the technique in general: In SRB staining, fixed cells bind dye roughly in proportion to their protein.
The test system of experiment [7] is MDA-MB-231. Put plainly: Cytotoxicity against ER-negative human MDA-MB-231 cells assessed as growth inhibition after 48 hrs by SRB assay. Format: functional, cell-based. The settings on record: MDA-MB-231, 48 h.
The test system of experiment [8] is MCF7. The experiment in a line: Cytotoxicity against ER-positive human MCF7 cells assessed as growth inhibition after 48 hrs by SRB assay. The format is functional, cell-based. To be noted: MCF7, 48 h.
Experiment [9] has as its system HT-29. The experiment in a line: Cytotoxicity against human HT-29 cells assessed as growth inhibition after 48 hrs by MTT assay. The format is functional, cell-based. The settings on record: HT-29, 48 h.
Experiment [10] concerns HeLa. The experiment in a line: Cytotoxicity against human HeLa cells assessed as growth inhibition after 48 hrs by MTT assay. Format: functional, cell-based.

A value given as a limit tells only on which side of the number the result lay.

The IC50 is the concentration needed to halve the response being measured. `C[C@]12CC[C@H]3[C@@H](CC[C@]45O[C@H]4C(=O)CC[C@]35C)[C@@H]1CC[C@@]2(O)Cc1ccccn1`: the IC50 in experiment [1] was over 100 µM; in experiment [2] it was 65.5 µM; in experiment [3], 10.4 µM; in [4], over 100 µM.

`C[C@]12CCC(=O)C=C1CC[C@@H]1[C@@H]2CC[C@]2(C)/C(=C/c3ccccn3)CC[C@@H]12`: the 50% inhibitory concentration (IC50) is over 100 µM in experiment [5], 12.9 µM in experiment [6], over 100 µM in experiment [7] and over 100 µM in experiment [8].

For `C[C@]12CC/C(=N\N)C=C1CC[C@@H]1[C@@H]2CC[C@@]2(C)[C@H]1CC[C@@]2(O)Cc1ccccn1`, the concentration for half-maximal inhibition (IC50) is over 100 µM in [1]; over 100 µM in [9]; over 100 µM in [10]; over 100 µM in experiment [2]; 32.5 µM in [3]; 6.3 µM in experiment [4].

Take `C#CCC[C@@]1(C)C(=O)CC[C@@H]2[C@@H]1CC[C@@]1(C)[C@H]2CC[C@@]1(O)Cc1ccccn1`: the 50% inhibitory concentration (IC50) in experiment [1] was over 100 µM; in [9], 6.5 µM; in experiment [10], over 100 µM; in [2], over 100 µM; in [3], over 100 µM; in experiment [4] it was over 100 µM.

On to `COc1cccc2c1C(=O)c1c(O)c3c(c(O)c1C2=O)C[C@@](O)(C(=O)CO)C[C@@H]3O[C@H]1C[C@H](N)[C@H](O)[C@H](C)O1` [DOXORUBICIN], for which the half-inhibitory concentration (IC50) in experiment [9] is 0.32 µM; in experiment [4] it was 0.75 µM.

As for `C[C@]12CC/C(=N\N)C=C1CC[C@@H]1[C@@H]2CC[C@]2(C)/C(=C/c3ccccn3)CC[C@@H]12`, the half-inhibitory concentration (IC50) was over 100 µM in experiment [1]; 51.7 µM in [9]; over 100 µM in experiment [10]; 5.9 µM in [2]; 17.1 µM in experiment [3]; 13.6 µM in [4].

As for `C[C@]12CC[C@H]3[C@@H](CC[C@]45O[C@H]4C(=O)CC[C@]35C)[C@@H]1CC/C2=C\c1ccccn1`, the half-inhibitory concentration (IC50) in experiment [1] was over 100 µM; in experiment [2] it was 14.3 µM; in experiment [3] it was 88.3 µM; in [4] it was 50.7 µM.

Regarding `C[C@]12CCC(=O)C(O)=C1CC[C@@H]1[C@@H]2CC[C@]2(C)C(=O)CC[C@@H]12` [FORMESTANE], the IC50 in [1], in experiment [9] and in experiment [4] was over 100 µM throughout.

Take `C[C@]12CCC(=O)C=C1CC[C@@H]1[C@@H]2CC[C@@]2(C)[C@H]1CC[C@@]2(O)Cc1ccccn1`: the IC50 in [5], in experiment [6], in experiment [7] and in [8] was over 100 µM in each case.

Consider `C[C@]12CC[C@H]3[C@@H](CC[C@@]4(O)C=CCC[C@]34C)[C@@H]1CC[C@@]2(O)Cc1ccccn1`, for which the IC50 in experiment [1], in experiment [9], in experiment [10], in experiment [2], in [3] and in experiment [4] was over 100 µM each time.

Turning to `C[C@]12CC[C@H]3[C@@H](CC[C@@]4(O)C=CCC[C@]34C)[C@@H]1CC/C2=C\c1ccccn1`, the IC50 in [1] is over 100 µM; in experiment [9] it was 57.2 µM; in experiment [10], 49.4 µM; in experiment [2], over 100 µM; in experiment [3], over 100 µM; in experiment [4] it was over 100 µM.

As for `C[C@]12CC[C@H](O)CC1=CC[C@@H]1[C@@H]2CC[C@]2(C)C(c3cccnc3)=CC[C@@H]12` [ABIRATERONE], the half-inhibitory concentration (IC50) in experiment [2] amounted to 9.32 µM.

Source of the values: ChEMBL document CHEMBL3091344, “17(E)-picolinylidene androstane derivatives as potential inhibitors of prostate cancer cell growth: antiproliferative activity and molecular docking studies” (Bioorg Med Chem, 2013).
